Reference: US20130303507A1 (Novartis AG, priority 2011, published 2013)
Where “and” joins values, the source holds several entries; their conditions need not be identical. Equal values may be shown once. Read-outs that look alike come from different tables or passages of the source.

Biological target: Cdk9/cyclinT1 (Homo sapiens, UniProt P50750)
Test: Cdk9/cyclinT1 Alpha Screen protocol
Type: biochemical
Set-up: Full length wild type Cdk9/cyclin T1 is purchased from Invitrogen; purchased Invitrogen PV4131
Details: individual determinations, read-out: CDK9_cyclinT1_AS2_IC50
Protocol: Cdk9/cyclinT1 Alpha Screen Protocol
Full length wild type Cdk9/cyclin T1 is purchased from Invitrogen, cat#PV4131. […] The cdk7tide peptide substrate, biotin-[…] -OH, is a custom synthesis purchased from the Tufts University Core Facility. The final concentration of cdk7tide peptide substrate is 200 nM. […] Phospho-Rpb1 CTD (ser2/5) substrate antibody is purchased from Cell Signaling Technology. The final concentration of antibody is 0.67 ug/ml. The Alpha Screen Protein A detection kit containing donor and acceptor beads is purchased from PerkinElmer Life Sciences. The final concentration of both donor and acceptor beads is 15 ug/ml. Alpha Screen is used for detection. […] The biotinylated-cdk7tide peptide substrate is bound to the streptavidin coated donor bead. The antibody is bound to the protein A coated acceptor bead. The antibody will bind to the phosphorylated form of the biotinylated-cdk7tide peptide substrate, bringing the donor and acceptor beads into close proximity. Laser irradiation of the donor bead at 680 nm generates a flow of short-lived singlet oxygen molecules. When the donor and acceptor beads are in close proximity, the reactive oxygen generated by the irradiation of the donor beads initiates a luminescence/fluorescence cascade in the acceptor beads. This process leads to a highly amplified signal with output in the 530-620 nm range. Assays are carried out in 50 mM Hepes, pH=7.5, 10 mM MgCl2, 0.1% Bovine Serum Albumin, 0.01% Tween-20, 1 mM Dithiothreitol, 2.5% Dimethyl Sulfoxide. Stop and detection steps are combined using 50 mM Hepes, pH=7.5, 18 mM EDTA, 0.1% Bovine Serum Albumin, 0.01% Tween-20.

Sequence of Cdk9/cyclinT1 (P50750 whole entry): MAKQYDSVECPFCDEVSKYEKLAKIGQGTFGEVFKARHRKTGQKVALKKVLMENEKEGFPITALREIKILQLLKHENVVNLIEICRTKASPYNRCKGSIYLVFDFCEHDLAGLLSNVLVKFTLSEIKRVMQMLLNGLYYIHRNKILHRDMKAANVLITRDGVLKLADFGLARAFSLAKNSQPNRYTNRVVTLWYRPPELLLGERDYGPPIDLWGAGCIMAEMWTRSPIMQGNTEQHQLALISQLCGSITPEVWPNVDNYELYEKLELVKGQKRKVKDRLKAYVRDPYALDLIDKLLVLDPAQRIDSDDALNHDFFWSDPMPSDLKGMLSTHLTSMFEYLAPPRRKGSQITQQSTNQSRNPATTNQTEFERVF
Sequence of Cdk9/cyclinT1 (O60563 whole entry partner): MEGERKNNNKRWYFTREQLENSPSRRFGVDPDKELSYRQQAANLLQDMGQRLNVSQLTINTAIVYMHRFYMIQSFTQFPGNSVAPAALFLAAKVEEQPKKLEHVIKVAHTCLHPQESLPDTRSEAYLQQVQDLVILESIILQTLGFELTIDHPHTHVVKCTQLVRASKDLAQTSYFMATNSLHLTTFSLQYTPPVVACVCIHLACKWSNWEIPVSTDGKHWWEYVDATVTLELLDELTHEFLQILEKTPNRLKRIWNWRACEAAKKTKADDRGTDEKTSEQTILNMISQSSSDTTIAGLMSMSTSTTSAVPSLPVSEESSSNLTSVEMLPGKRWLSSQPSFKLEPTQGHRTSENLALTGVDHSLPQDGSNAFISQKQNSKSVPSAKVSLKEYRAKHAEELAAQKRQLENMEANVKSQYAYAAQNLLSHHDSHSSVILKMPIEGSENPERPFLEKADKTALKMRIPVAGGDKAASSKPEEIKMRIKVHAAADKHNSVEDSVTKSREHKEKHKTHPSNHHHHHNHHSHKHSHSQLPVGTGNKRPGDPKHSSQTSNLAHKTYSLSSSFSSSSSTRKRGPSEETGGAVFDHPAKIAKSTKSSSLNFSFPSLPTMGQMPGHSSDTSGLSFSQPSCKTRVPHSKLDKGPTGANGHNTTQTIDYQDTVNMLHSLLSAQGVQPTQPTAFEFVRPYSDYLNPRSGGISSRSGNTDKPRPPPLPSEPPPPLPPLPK

| SMILES | IC50 (neutral species) | IC50 (TFA salt) |
| --- | --- | --- |
| CO[C@H]1CCN([C@H]2CC[C@@H](Nc3cc(-c4cccc(NCC5(C#N)CCOCC5)n4)c(Cl)cn3)CC2)C1 [Compound 513] | 5.39 nM | 26.1 nM |
| C[C@H](O)CN[C@H]1CC[C@H](Nc2cc(-c3cccc(NCC4(C#N)CCOCC4)n3)c(Cl)cn2)CC1 [Compound 554] | 0.395 nM |  |
| CC(C)(O)CN[C@H]1CC[C@H](Nc2cc(-c3cccc(NCC4(C#N)CCOCC4)n3)c(Cl)cn2)CC1 [Compound 521] | 0.475 nM |  |
| CO[C@H]1CCN([C@H]2CC[C@H](Nc3cc(-c4cccc(NCC5(C#N)CCOCC5)n4)c(Cl)cn3)CC2)C1 [Compound 514] | 0.553 nM | 0.826 nM |
| N#CC1(CNc2cccc(-c3cc(N[C@H]4CC[C@H](N[C@H]5CCCC[C@@H]5O)CC4)ncc3Cl)n2)CCOCC1 [Compound 523] |  | 0.33 nM |
| CC(C)(O)CN[C@H]1CC[C@H](Nc2cc(-c3cncc(OCC4(C#N)CCOCC4)n3)c(Cl)cn2)CC1 [Compound 524] | 0.85 nM |  |
| COCCN[C@H]1CC[C@H](Nc2cc(-c3cncc(OCC4(C#N)CC4)n3)c(F)cn2)CC1 [Compound 556] | 0.628 nM |  |
| N#CC1(CNc2cccc(-c3cc(N[C@H]4CC[C@H](NC[C@@H](O)CF)CC4)ncc3Cl)n2)CCOCC1 [Compound 544] |  | 0.2 nM |
| COC[C@@H](C)N[C@H]1CC[C@H](Nc2cc(-c3cccc(NCC4(C#N)CCOCC4)n3)c(F)cn2)CC1 [Compound 519] | 0.235 nM | 0.252 nM and 0.218 nM and 0.232 nM and 0.38 nM |
| COCC(C)NC[C@H]1CC[C@H](Nc2cc(-c3cccc(NCC4(C#N)CCOCC4)n3)c(Cl)cn2)CC1 (stereo partly shown) [Compound 526] | 1.19 nM |  |
| N#CC1(CNc2cccc(-c3cc(N[C@H]4CC[C@H](N[C@@H]5CCCC[C@H]5O)CC4)ncc3Cl)n2)CCOCC1 [Compound 525] |  | 0.542 nM |
| CC(C)(C)OCCN(CCOC(C)(C)C)[C@H]1CC[C@H](Nc2cc(-c3cccc(NCC4(C#N)CCOCC4)n3)c(Cl)cn2)CC1 [Compound 518] |  | 8.57 nM |
| CC(O)(CN[C@H]1CC[C@H](Nc2cc(-c3cccc(NCC4(C#N)CCOCC4)n3)c(Cl)cn2)CC1)C(F)(F)F (stereo partly shown) [Compound 539] | 0.537 nM and 0.466 nM |  |
| N#CC1(CNc2cccc(-c3cc(N[C@H]4CC[C@H](NCC(O)CF)CC4)ncc3Cl)n2)CCOCC1 (stereo partly shown) [Compound 535] | 0.398 nM |  |
| COCCNC[C@H]1CC[C@H](Nc2cc(-c3cccc(NCC4(C#N)CCOCC4)n3)c(Cl)cn2)CC1 [Compound 540] | 0.596 nM and 0.536 nM |  |
| N#CC1(COc2cncc(-c3cc(N[C@H]4CC[C@H](N)CC4)ncc3F)n2)CCOCC1 [Compound 534] |  | 0.471 nM |

| SMILES | IC50 (neutral species) | IC50 (TFA salt) |
| --- | --- | --- |
| C[C@H](O)[C@@H](C)N[C@H]1CC[C@H](Nc2cc(-c3cccc(NCC4(C#N)CCOCC4)n3)c(Cl)cn2)CC1 [Compound 543] |  | 0.229 nM |
| COC[C@@H](C)NC[C@H]1CC[C@H](Nc2cc(-c3cccc(NCC4(C#N)CCOCC4)n3)c(Cl)cn2)CC1 [Compound 532] |  | 0.703 nM |
| N#CC1(CNc2cccc(-c3cc(N[C@H]4CC[C@@H](N5CCCOCC5)CC4)ncc3Cl)n2)CCOCC1 [Compound 538] |  | 19.8 nM and 20.9 nM |
| COCCN(C1CC1)[C@H]1CC[C@H](Nc2cc(-c3cncc(OCC4(C#N)CCOCC4)n3)c(F)cn2)CC1 [Compound 555] | 2.13 nM |  |
| COC[C@@H](C)N[C@H]1CC[C@H](Nc2cc(-c3cnc(Cl)c(NCC4(C#N)CCOCC4)n3)c(Cl)cn2)CC1 [Compound 512] | 254 nM |  |
| C[C@H](N[C@H]1CC[C@H](Nc2cc(-c3cccc(NCC4(C#N)CCOCC4)n3)c(Cl)cn2)CC1)[C@@H](C)O [Compound 531] | 0.471 nM |  |
| COC(C)(C)CN[C@H]1CC[C@H](Nc2cc(-c3cccc(NCC4(C#N)CCOCC4)n3)c(Cl)cn2)CC1 [Compound 529] | 0.281 nM |  |
| CC(C)(O)CN[C@H]1CC[C@H](Nc2cc(-c3cccc(NCC4(C#N)CCOCC4)n3)c(F)cn2)CC1 [Compound 522] | 0.421 nM |  |
| COC[C@@H](C)N[C@H]1CC[C@H](Nc2cc(-c3cncc(OCC4(C#N)CC4)n3)c(F)cn2)CC1 [Compound 557] | 0.378 nM |  |
| COC[C@@H](C)N[C@H]1CC[C@H](Nc2cc(-c3cccc(NCC4(C#N)CC4)n3)c(F)cn2)CC1 [Compound 551] | 0.299 nM and 0.303 nM and 0.654 nM | 0.0753 nM and 0.28 nM and 0.0939 nM |
| N#CC1(CNc2cccc(-c3cc(N[C@H]4CC[C@H](N5CCn6c(nnc6C(F)(F)F)C5)CC4)ncc3Cl)n2)CCOCC1 [Compound 528] | 7.73 nM |  |
| N#CC1(CNc2cccc(-c3cc(N[C@H]4CC[C@H](NC[C@H](O)CF)CC4)ncc3Cl)n2)CCOCC1 [Compound 542] |  | 0.168 nM |
| N#CC1(CNc2cccc(-c3cc(N[C@H]4CC[C@H](CN5CCOCC5)CC4)ncc3Cl)n2)CCOCC1 [Compound 536] | 2.11 nM | 1.87 nM |
| COC[C@H](C)NC[C@H]1CC[C@H](Nc2cc(-c3cccc(NCC4(C#N)CCOCC4)n3)c(Cl)cn2)CC1 [Compound 533] |  | 0.867 nM |
| N#CC1(CNc2cccc(-c3cc(N[C@H]4CC[C@H](N5CC6(COC6)C5)CC4)ncc3Cl)n2)CCOCC1 [Compound 546] | 1.42 nM and 1.08 nM and 1.12 nM |  |

Other lines, results leading:

| IC50 (neutral species) | IC50 (TFA salt) | SMILES |
| --- | --- | --- |
| 1 nM |  | C[C@@](O)(CN[C@H]1CC[C@H](Nc2cc(-c3cncc(OCC4(C#N)CCOCC4)n3)c(Cl)cn2)CC1)C(F)(F)F [Compound 582] |
| 5.6 nM |  | COCC(C)N[C@H]1CC[C@@H](Nc2cc(-c3cccc(NCC4(C#N)CCOCC4)n3)c(Cl)cn2)CC1 (stereo partly shown) [Compound 603] |
| 0.754 nM and 0.279 nM |  | N#CC1(CN[C@H]2CC[C@H](Nc3cc(-c4cncc(OCC5(C#N)CCOCC5)n4)c(Cl)cn3)CC2)CC1 [Compound 567] |
|  | 0.432 nM and 0.255 nM | C[C@@](O)(CN[C@H]1CC[C@H](Nc2cc(-c3cccc(NCC4(C#N)CCOCC4)n3)c(Cl)cn2)CC1)C(F)(F)F [Compound 577] |
| < 1 nM |  | [2H][C@](C)(COC)N[C@H]1CC[C@H](Nc2cc(-c3cccc(NCC4(C#N)CCOCC4)n3)c(Cl)cn2)CC1 [Compound 597] |
|  | 0.497 nM and 0.311 nM | C[C@](O)(CN[C@H]1CC[C@H](Nc2cc(-c3cccc(NCC4(C#N)CCOCC4)n3)c(Cl)cn2)CC1)C(F)(F)F [Compound 578] |
| 0.481 nM |  | N#CC1(CNc2cccc(-c3cc(N[C@H]4CC[C@H](NCC5(O)CC5)CC4)ncc3Cl)n2)CCOCC1 [Compound 560] |
| < 1 nM |  | C[C@H](CO)N[C@H]1CC[C@H](Nc2cc(-c3cncc(OCC4(C#N)CCOCC4)n3)c(F)cn2)CC1 [Compound 592] |
| 0.448 nM |  | N#CC1(COc2cncc(-c3cc(N[C@H]4CC[C@H](NC[C@H](O)C(F)(F)F)CC4)ncc3Cl)n2)CCOCC1 [Compound 574] |
| 1 nM |  | COC[C@H](C)N[C@H]1CC[C@H](Nc2cc(-c3cccc(NCC4(C#N)CC4)n3)c(F)cn2)CC1 [Compound 587] |
| < 1 nM |  | [2H]C([2H])([2H])OC[C@@H](C)N[C@H]1CC[C@H](Nc2cc(-c3cncc(OCC4(C#N)CCOCC4)n3)c(Cl)cn2)CC1 [Compound 599] |
| 0.397 nM |  | N#CC1(CNc2cccc(-c3cc(N[C@H]4CC[C@H](NCCCO)CC4)ncc3Cl)n2)CCOCC1 [Compound 571] |
| < 1 nM |  | N#CC1(CNc2cccc(-c3cc(N[C@H]4CC[C@H](N[C@H]5CCCC[C@@H]5O)CC4)ncc3Cl)n2)CCOCC1 [Compound 588] |
| 1 nM |  | [2H]C([2H])([2H])OC[C@H](C)N[C@H]1CC[C@H](Nc2cc(-c3cncc(OCC4(C#N)CCOCC4)n3)c(Cl)cn2)CC1 [Compound 598] |
| 25 nM |  | COC[C@@H](C)N[C@H]1CC[C@@H](Nc2cc(-c3cccc(NCC4(C#N)CCOCC4)n3)c(Cl)cn2)CC1 [Compound 601] |
| < 1 nM |  | [2H]C([2H])([2H])OCC(C)N[C@H]1CC[C@H](Nc2cc(-c3cncc(OCC4(C#N)CCOCC4)n3)c(Cl)cn2)CC1 (stereo partly shown) [Compound 595] |
|  | 0.137 nM | N#CC1(CNc2cccc(-c3cc(N[C@H]4CC[C@H](O)CC4)ncc3F)n2)CCOCC1 [Compound 576] |
| < 1 nM |  | [2H]C(C)(COC)N[C@H]1CC[C@H](Nc2cc(-c3cccc(NCC4(C#N)CCOCC4)n3)c(Cl)cn2)CC1 (stereo partly shown) [Compound 594] |
| < 1 nM |  | C[C@H](CO)N[C@H]1CC[C@@H](Nc2cc(-c3cncc(OCC4(C#N)CCOCC4)n3)c(Cl)cn2)CC1 [Compound 591] |
| 8.1 nM |  | COC[C@H](C)N[C@H]1CC[C@@H](Nc2cc(-c3cccc(NCC4(C#N)CCOCC4)n3)c(Cl)cn2)CC1 [Compound 602] |
| 6.44 nM |  | N#CC1(CNc2cccc(-c3cc(N[C@H]4CC[C@@H](NCC5(O)CC5)CC4)ncc3Cl)n2)CCOCC1 [Compound 573] |
| 0.549 nM | 0.321 nM | N#CC1(COc2cncc(-c3cc(N[C@H]4CC[C@H](NCCC(F)(F)F)CC4)ncc3Cl)n2)CCOCC1 [Compound 562] |
| 0.334 nM and 0.311 nM | 0.433 nM and 0.226 nM | COCCN[C@H]1CC[C@H](Nc2cc(-c3ccc(F)c(NCC4(C)CCOCC4)n3)c(Cl)cn2)CC1 [Compound 565] |
| 9.54 nM |  | N#CC1(CNc2cccc(-c3cc(N[C@H]4CC[C@@H](NC5CC(F)(F)C5)CC4)ncc3Cl)n2)CCOCC1 [Compound 564] |
| 1 nM |  | COC[C@@H](C)N(O)[C@H]1CC[C@H](Nc2cc(-c3cncc(OCC4(C#N)CCOCC4)n3)c(Cl)cn2)CC1 [Compound 581] |
| 1 nM |  | COC[C@H](C)N[C@H]1CC[C@H](Nc2cc(-c3cncc(OCC4(C#N)CCOCC4)n3)c(F)cn2)CC1 [Compound 589] |
